Tests used:
Assay in all cases: Cell proliferation assay (ATPlite), drug with vs without cobicistat
Format in all cases: cell-based
786-O = 786-O cell line; 120 hours incubation
Description: (§1) All cell lines were obtained from the American Type Culture Collection (ATCC) Manassas, Va. (US). Master and working cell banks (MCB and WCB) were prepared by subculturing in ATCC-recommended media and freezing protocols (www.atcc.org). Cell line stocks for the assays were prepared from the WCB. The MCB, WCBs and assay stocks were prepared within respectively 3, 6 and 9 passages of the ATCC vial.
(§2) Solid powders of reference compounds were weighed on a calibrated balance and dissolved in 100% DMSO. DMSO samples were stored at room temperature. At the day of the experiment, the compound stock was diluted in 3.16 fold steps in 100% DMSO to obtain a 9-point dilution series. This was further diluted 31.6 times in 20 mM sterile Hepes buffer pH 7.4. A volume of 5 μl was transferred to the cells to generate a test concentration range from 3.16×10^−5M to 3.16×10^−9 M in duplicate. The final DMSO concentration during incubation was […] in all wells.
(§3) An assay stock was thawed and diluted in its ATCC recommended medium and dispensed in a 384-well plate, depending on the cell line used, at a concentration of 200-3200 cells per well in 45 μl medium. For each used cell line the optimal cell density is used. The margins of the plate were filled with phosphate-buffered saline. Plated cells were incubated in a humidified atmosphere of 5% CO2 at 37° C. After 24 hours, 5 μl of compound dilution was added and plates were further incubated for another 120 hours. After 120 hours, 25 μl of ATPlite 1Step™ (PerkinElmer) solution was added to each well, and subsequently shaken for 2 minutes. After 10 minutes of incubation in the dark, the luminescence was recorded on an Envision multimode reader (PerkinElmer).
(§4) IC50s were calculated by non-linear regression using IDBS XLfit 5. The percentage growth after 120 h (%-growth) was calculated as follows: 100%×(luminescencet=120h/luminescenceuntreated,t=120h). This was fitted to the ^10log compound concentration (conc) by a 4-parameter logistics curve: %−growth=bottom+(top−bottom)/(1+10^(log IC50-conc)*hill)), where hill is the Hill-coefficient, and bottom and top the asymptotic minimum and maximum cell growth that the compound allows in that assay.

DoTc2 4510 = DoTc2 4510 cell line; 120 hours incubation
Description: as §1, §2, §3, §4

769-P = 769-P cell line; 120 hours incubation
Description: as §1, §2, §3, §4

BT-20 = BT-20 cell line; 120 hours incubation
Description: as §1, §2, §3, §4

BxPC-3 = BxPC-3 cell line; 120 hours incubation
Description: as §1, §2, §3, §4

SJCRH30 = SJCRH30 cell line; 120 hours incubation
Description: as §1, §2, §3, §4

MCF7 = MCF7 cell line; 120 hours incubation
Description: as §1, §2, §3, §4

A-172 = A-172 cell line; 120 hours incubation
Description: as §1, §2, §3, §4

HCT-15 = HCT-15 cell line; 120 hours incubation
Description: as §1, §2, §3, §4

SW948 = SW948 cell line; 120 hours incubation
Description: as §1, §2, §3, §4

A388 = A388 cell line; 120 hours incubation
Description: as §1, §2, §3, §4

FaDu = FaDu cell line; 120 hours incubation
Description: as §1, §2, §3, §4

SW48 = SW48 cell line; 120 hours incubation
Description: as §1, §2, §3, §4

COLO 205 = COLO 205 cell line; 120 hours incubation
Description: as §1, §2, §3, §4

SW620 = SW620 cell line; 120 hours incubation
Description: as §1, §2, §3, §4

Daoy = Daoy cell line; 120 hours incubation
Description: as §1, §2, §3, §4

MOLT-4 = MOLT-4 cell line; 120 hours incubation
Description: as §1, §2, §3, §4

ACHN = ACHN cell line; 120 hours incubation
Description: as §1, §2, §3, §4

SK-N-AS = SK-N-AS cell line; 120 hours incubation
Description: as §1, §2, §3, §4

SUP-T1 = SUP-T1 cell line; 120 hours incubation
Description: as §1, §2, §3, §4

HCT 116 = HCT 116 cell line; 120 hours incubation
Description: as §1, §2, §3, §4

A375 = A375 cell line; 120 hours incubation
Description: as §1, §2, §3, §4

DU 145 = DU 145 cell line; 120 hours incubation
Description: as §1, §2, §3, §4

MG-63 = MG-63 cell line; 120 hours incubation
Description: as §1, §2, §3, §4

SW480 = SW480 cell line; 120 hours incubation
Description: as §1, §2, §3, §4

T24 = T24 cell line; 120 hours incubation
Description: as §1, §2, §3, §4

SNU-C2B = SNU-C2B cell line; 120 hours incubation
Description: as §1, §2, §3, §4

SR = SR cell line; 120 hours incubation
Description: as §1, §2, §3, §4

J82 = J82 cell line; 120 hours incubation
Description: as §1, §2, §3, §4

VA-ES-BJ = VA-ES-BJ cell line; 120 hours incubation
Description: as §1, §2, §3, §4

SMILES	Fold change in IC50 (IC50 [Drug + Cobicistat]/IC50 [Drug]) (786-O) [fold]	Fold change in IC50 (IC50 [Drug + Cobicistat]/IC50 [Drug]) (DoTc2 4510) [fold]	Fold change in IC50 (IC50 [Drug + Cobicistat]/IC50 [Drug]) (769-P) [fold]	Fold change in IC50 (IC50 [Drug + Cobicistat]/IC50 [Drug]) (BT-20) [fold]	Fold change in IC50 (IC50 [Drug + Cobicistat]/IC50 [Drug]) (BxPC-3) [fold]	Fold change in IC50 (IC50 [Drug + Cobicistat]/IC50 [Drug]) (SJCRH30) [fold]	Fold change in IC50 (IC50 [Drug + Cobicistat]/IC50 [Drug]) (MCF7) [fold]	Fold change in IC50 (IC50 [Drug + Cobicistat]/IC50 [Drug]) (A-172) [fold]	Fold change in IC50 (IC50 [Drug + Cobicistat]/IC50 [Drug]) (HCT-15) [fold]	Fold change in IC50 (IC50 [Drug + Cobicistat]/IC50 [Drug]) (SW948) [fold]	Fold change in IC50 (IC50 [Drug + Cobicistat]/IC50 [Drug]) (A388) [fold]	Fold change in IC50 (IC50 [Drug + Cobicistat]/IC50 [Drug]) (FaDu) [fold]	Fold change in IC50 (IC50 [Drug + Cobicistat]/IC50 [Drug]) (SW48) [fold]	Fold change in IC50 (IC50 [Drug + Cobicistat]/IC50 [Drug]) (COLO 205) [fold]	Fold change in IC50 (IC50 [Drug + Cobicistat]/IC50 [Drug]) (SW620) [fold]	Fold change in IC50 (IC50 [Drug + Cobicistat]/IC50 [Drug]) (Daoy) [fold]	Fold change in IC50 (IC50 [Drug + Cobicistat]/IC50 [Drug]) (MOLT-4) [fold]	Fold change in IC50 (IC50 [Drug + Cobicistat]/IC50 [Drug]) (ACHN) [fold]	Fold change in IC50 (IC50 [Drug + Cobicistat]/IC50 [Drug]) (SK-N-AS) [fold]	Fold change in IC50 (IC50 [Drug + Cobicistat]/IC50 [Drug]) (SUP-T1) [fold]	further results
Cc1nc(Nc2ncc(C(=O)Nc3c(C)cccc3Cl)s2)cc(N2CCN(CCO)CC2)n1 [dasatinib]	1.6	3.0	3.8	1.4	2.2	1.4	1.9	1.7	2.6	1.2	1.9	2.1	2.2	1.2	3.2	3.2	1.1	2.8	1.6	1.4	Fold change in IC50 (IC50 [Drug + Cobicistat]/IC50 [Drug]) (HCT 116): 3.4 fold; Fold change in IC50 (IC50 [Drug + Cobicistat]/IC50 [Drug]) (A375): 1.3 fold; Fold change in IC50 (IC50 [Drug + Cobicistat]/IC50 [Drug]) (DU 145): 3.6 fold; Fold change in IC50 (IC50 [Drug + Cobicistat]/IC50 [Drug]) (MG-63): 2.9 fold; Fold change in IC50 (IC50 [Drug + Cobicistat]/IC50 [Drug]) (SW480): 1.0 fold; Fold change in IC50 (IC50 [Drug + Cobicistat]/IC50 [Drug]) (T24): 3.9 fold; Fold change in IC50 (IC50 [Drug + Cobicistat]/IC50 [Drug]) (SNU-C2B): 0.9 fold; Fold change in IC50 (IC50 [Drug + Cobicistat]/IC50 [Drug]) (SR): 1.9 fold; Fold change in IC50 (IC50 [Drug + Cobicistat]/IC50 [Drug]) (J82): 2.1 fold; Fold change in IC50 (IC50 [Drug + Cobicistat]/IC50 [Drug]) (VA-ES-BJ): 3.1 fold
CC(=O)O[C@H]1C(=O)[C@@]2(C)[C@H]([C@H](OC(=O)c3ccccc3)[C@]3(O)C[C@H](OC(=O)[C@H](O)[C@@H](NC(=O)c4ccccc4)c4ccccc4)C(C)=C1C3(C)C)[C@]1(OC(C)=O)CO[C@@H]1C[C@@H]2O [paclitaxel]	3.0	3.4	2.9	1.5	3.2	1.6	3.3	1.7	2.4	2.6	2.7	1.3	1.4	3.0	1.8	3.4	2.1	2.5	2.3	3.5	Fold change in IC50 (IC50 [Drug + Cobicistat]/IC50 [Drug]) (HCT 116): 1.0 fold; Fold change in IC50 (IC50 [Drug + Cobicistat]/IC50 [Drug]) (A375): 2.3 fold; Fold change in IC50 (IC50 [Drug + Cobicistat]/IC50 [Drug]) (DU 145): 4.8 fold; Fold change in IC50 (IC50 [Drug + Cobicistat]/IC50 [Drug]) (MG-63): 2.4 fold; Fold change in IC50 (IC50 [Drug + Cobicistat]/IC50 [Drug]) (SW480): 1.9 fold; Fold change in IC50 (IC50 [Drug + Cobicistat]/IC50 [Drug]) (T24): 4.4 fold; Fold change in IC50 (IC50 [Drug + Cobicistat]/IC50 [Drug]) (SNU-C2B): 3.0 fold; Fold change in IC50 (IC50 [Drug + Cobicistat]/IC50 [Drug]) (SR): 1.8 fold; Fold change in IC50 (IC50 [Drug + Cobicistat]/IC50 [Drug]) (J82): 2.9 fold; Fold change in IC50 (IC50 [Drug + Cobicistat]/IC50 [Drug]) (VA-ES-BJ): 2.8 fold

— patent US20180036289A1 (Gilead Sciences, Inc., priority 2016, published 2018)
